Measured values published in ChEMBL document CHEMBL1121747, “Side-chain effects on phenothiazine cation radical reactions” (J Med Chem, 1981).

Assay: Dissociation constant was reported
Assay type: physicochemical

CN(C)CCN1c2ccccc2Sc2ccc(Cl)cc21 [CHOLRPHENETHAZINE]
pKa: 9.1
